# Experimental data as given in US4011307A, “Production of ^203 Pb-tris-hydroxymethyl amino methane” (The United States of America as represented by the United …, priority 1976, dated 1977).
# What was measured:
# [1] = tested on: melanomas, tumors; assay: Localization / tissue distribution study in tumor bearing animals; format: in vivo, mice and hamsters
# Procedure: The ^203 Pb-tris as described herein was injected in a relatively large number of mice and hamsters which were tumor bearing animals.
# [2] = Toxicity effects from the presence of lead in the blood stream; format: in vivo; details: near carrier-free lead-203 complexed with tris
# [3] = tested on: tissues of hamsters with eye melanoma; assay: Distribution of carrier-free lead-203 tris in tissue at various times; format: in vivo, hamster
# Procedure: The ^203 Pb-tris as described herein was injected in a relatively large number of mice and hamsters which were tumor bearing animals. […]
# [4] = tested on: tumors; details: previous attempts reported; cited from earlier work
substance,measurement,setting,value
Lead-203 tris-hydroxymethyl aminomethane,Ability to localize in melanomas,[1]; extensive studies,"has the ability to localize in melanomas, especially those of the eye"
same,Uptake of ^203 Pb by the tumors,"[1]; tumor bearing mice and hamsters, injected, tissue distribution",selective uptake by the tumors
same,Toxicity effects from the presence of lead in the blood stream,[2],avoided or minimized
same,"Distribution, Blood","[3]; Time 1, 60 min",3.870 Percent Uptake per Gram of Tis
same,"Distribution, Blood","[3]; Time 3, 180 min",3.635 Percent Uptake per Gram of Tis
same,"Distribution, Blood","[3]; Time 6, 360 min",5.847 Percent Uptake per Gram of Tis
same,"Distribution, Blood","[3]; Time 24, 1440 min",3.007 Percent Uptake per Gram of Tis
same,"Distribution, Blood","[3]; Time 72, 4320 min",3.792 Percent Uptake per Gram of Tis
same,"Distribution, Blood","[3]; Time 144, 8640 min",0.852 Percent Uptake per Gram of Tis
same,"Distribution, Bone","[3]; Time 1, 60 min",3.977 Percent Uptake per Gram of Tis
same,"Distribution, Bone","[3]; Time 3, 180 min",3.991 Percent Uptake per Gram of Tis
same,"Distribution, Bone","[3]; Time 6, 360 min",5.320 Percent Uptake per Gram of Tis
same,"Distribution, Bone","[3]; Time 24, 1440 min",5.342 Percent Uptake per Gram of Tis
same,"Distribution, Bone","[3]; Time 72, 4320 min",9.761 Percent Uptake per Gram of Tis
same,"Distribution, Bone","[3]; Time 144, 8640 min",5.757 Percent Uptake per Gram of Tis
same,"Distribution, Choroid","[3]; Time 1, 60 min",1.109 Percent Uptake per Gram of Tis
same,"Distribution, Choroid","[3]; Time 3, 180 min",0.950 Percent Uptake per Gram of Tis
same,"Distribution, Choroid","[3]; Time 6, 360 min",0.337 Percent Uptake per Gram of Tis
same,"Distribution, Choroid","[3]; Time 24, 1440 min",0.361 Percent Uptake per Gram of Tis
same,"Distribution, Choroid","[3]; Time 72, * 4 animals, 4320 min",0.127 Percent Uptake per Gram of Tis
same,"Distribution, Choroid","[3]; Time 144, 8640 min",0.131 Percent Uptake per Gram of Tis
same,"Distribution, Cornea",[3]; Time 1,0.834 Percent Uptake per Gram of Tis
same,"Distribution, Cornea",[3]; Time 3,0.173 Percent Uptake per Gram of Tis
same,"Distribution, Cornea",[3]; Time 6,0.891 Percent Uptake per Gram of Tis
same,"Distribution, Cornea",[3]; Time 24,0.200 Percent Uptake per Gram of Tis
same,"Distribution, Cornea","[3]; Time 72, * 4 animals",0.084 Percent Uptake per Gram of Tis
same,"Distribution, Cornea",[3]; Time 144,0.062 Percent Uptake per Gram of Tis
same,"Distribution, Gonads","[3]; Time 1, 60 min",2.076 Percent Uptake per Gram of Tis
same,"Distribution, Gonads","[3]; Time 3, 180 min",0.238 Percent Uptake per Gram of Tis
same,"Distribution, Gonads","[3]; Time 6, 360 min",0.663 Percent Uptake per Gram of Tis
same,"Distribution, Gonads","[3]; Time 24, 1440 min",0.164 Percent Uptake per Gram of Tis
same,"Distribution, Gonads","[3]; Time 144, 8640 min",0.079 Percent Uptake per Gram of Tis
same,"Distribution, Intestines","[3]; Time 1, 60 min",0.841 Percent Uptake per Gram of Tis
same,"Distribution, Intestines","[3]; Time 3, 180 min",0.653 Percent Uptake per Gram of Tis
same,"Distribution, Intestines","[3]; Time 6, 360 min",1.593 Percent Uptake per Gram of Tis
same,"Distribution, Intestines","[3]; Time 24, 1440 min",1.664 Percent Uptake per Gram of Tis
same,"Distribution, Intestines","[3]; Time 72, * 4 animals, 4320 min",2.064 Percent Uptake per Gram of Tis
same,"Distribution, Intestines","[3]; Time 144, 8640 min",0.217 Percent Uptake per Gram of Tis
same,"Distribution, Kidney","[3]; Time 1, 60 min",25.32 Percent Uptake per Gram of Tis
same,"Distribution, Kidney","[3]; Time 3, 180 min",18.156 Percent Uptake per Gram of Tis
same,"Distribution, Kidney","[3]; Time 6, 360 min",17.703 Percent Uptake per Gram of Tis
same,"Distribution, Kidney","[3]; Time 24, 1440 min",10.508 Percent Uptake per Gram of Tis
same,"Distribution, Kidney","[3]; Time 72, 4320 min",17.443 Percent Uptake per Gram of Tis
same,"Distribution, Kidney","[3]; Time 144, 8640 min",3.904 Percent Uptake per Gram of Tis
same,"Distribution, Lens","[3]; Time 1, 60 min",0.017 Percent Uptake per Gram of Tis
same,"Distribution, Lens","[3]; Time 3, 180 min",0.023 Percent Uptake per Gram of Tis
same,"Distribution, Lens","[3]; Time 6, 360 min",0.021 Percent Uptake per Gram of Tis
same,"Distribution, Lens","[3]; Time 24, 1440 min",0.005 Percent Uptake per Gram of Tis
same,"Distribution, Lens","[3]; Time 72, * 4 animals, 4320 min",0.006 Percent Uptake per Gram of Tis
same,"Distribution, Lens","[3]; Time 144, 8640 min",0.005 Percent Uptake per Gram of Tis
same,"Distribution, Liver","[3]; Time 1, 60 min",5.463 Percent Uptake per Gram of Tis
same,"Distribution, Liver","[3]; Time 3, 180 min",4.273 Percent Uptake per Gram of Tis
same,"Distribution, Liver","[3]; Time 6, 360 min",7.188 Percent Uptake per Gram of Tis
same,"Distribution, Liver","[3]; Time 24, 1440 min",3.729 Percent Uptake per Gram of Tis
same,"Distribution, Liver","[3]; Time 72, 4320 min",4.841 Percent Uptake per Gram of Tis
same,"Distribution, Liver","[3]; Time 144, 8640 min",2.331 Percent Uptake per Gram of Tis
same,"Distribution, Melanoma-Eye","[3]; Time 1, 60 min",1.048 Percent Uptake per Gram of Tis
same,"Distribution, Melanoma-Eye","[3]; Time 3, 180 min",0.976 Percent Uptake per Gram of Tis
same,"Distribution, Melanoma-Eye","[3]; Time 6, 360 min",1.609 Percent Uptake per Gram of Tis
same,"Distribution, Melanoma-Eye","[3]; Time 24, 1440 min",1.314 Percent Uptake per Gram of Tis
same,"Distribution, Melanoma-Eye","[3]; Time 72, * 4 animals, 4320 min",0.724 Percent Uptake per Gram of Tis
same,"Distribution, Melanoma-Eye","[3]; Time 144, 8640 min",0.821 Percent Uptake per Gram of Tis
same,"Distribution, Melanoma-Skin","[3]; Time 1, 60 min",1.095 Percent Uptake per Gram of Tis
same,"Distribution, Melanoma-Skin","[3]; Time 3, 180 min",1.051 Percent Uptake per Gram of Tis
same,"Distribution, Melanoma-Skin","[3]; Time 6, 360 min",1.209 Percent Uptake per Gram of Tis
same,"Distribution, Melanoma-Skin","[3]; Time 24, 1440 min",0.845 Percent Uptake per Gram of Tis
same,"Distribution, Melanoma-Skin","[3]; Time 72, 4320 min",1.010 Percent Uptake per Gram of Tis
same,"Distribution, Melanoma-Skin","[3]; Time 144, 8640 min",0.749 Percent Uptake per Gram of Tis
same,"Distribution, Muscle",[3]; Time 1,0.159 Percent Uptake per Gram of Tis
same,"Distribution, Muscle",[3]; Time 3,0.100 Percent Uptake per Gram of Tis
same,"Distribution, Muscle",[3]; Time 6,0.090 Percent Uptake per Gram of Tis
same,"Distribution, Muscle",[3]; Time 24,0.026 Percent Uptake per Gram of Tis
same,"Distribution, Muscle",[3]; Time 72,0.041 Percent Uptake per Gram of Tis
same,"Distribution, Muscle","[3]; Time 144, 8640 min",0.027 Percent Uptake per Gram of Tis
same,"Distribution, Normal-Eye","[3]; Time 1, 60 min",0.200 Percent Uptake per Gram of Tis
same,"Distribution, Normal-Eye","[3]; Time 3, 180 min",0.086 Percent Uptake per Gram of Tis
same,"Distribution, Normal-Eye","[3]; Time 6, 360 min",0.111 Percent Uptake per Gram of Tis
same,"Distribution, Normal-Eye","[3]; Time 24, 1440 min",0.054 Percent Uptake per Gram of Tis
same,"Distribution, Normal-Eye","[3]; Time 72, 4320 min",0.084 Percent Uptake per Gram of Tis
same,"Distribution, Normal-Eye","[3]; Time 144, 8640 min",0.047 Percent Uptake per Gram of Tis
same,"Distribution, Normal-Skin","[3]; Time 1, 60 min",0.401 Percent Uptake per Gram of Tis
same,"Distribution, Normal-Skin","[3]; Time 3, 180 min",0.256 Percent Uptake per Gram of Tis
same,"Distribution, Normal-Skin","[3]; Time 6, 360 min",0.286 Percent Uptake per Gram of Tis
same,"Distribution, Normal-Skin","[3]; Time 24, 1440 min",0.090 Percent Uptake per Gram of Tis
same,"Distribution, Normal-Skin","[3]; Time 72, 4320 min",0.122 Percent Uptake per Gram of Tis
same,"Distribution, Normal-Skin","[3]; Time 144, 8640 min",0.071 Percent Uptake per Gram of Tis
same,"Distribution, Retina","[3]; Time 1, 60 min",0.169 Percent Uptake per Gram of Tis
same,"Distribution, Retina","[3]; Time 3, 180 min",0.074 Percent Uptake per Gram of Tis
same,"Distribution, Retina","[3]; Time 6, 360 min",0.251 Percent Uptake per Gram of Tis
same,"Distribution, Retina","[3]; Time 24, 1440 min",0.206 Percent Uptake per Gram of Tis
same,"Distribution, Retina","[3]; Time 72, * 4 animals, 4320 min",0.091 Percent Uptake per Gram of Tis
same,"Distribution, Retina","[3]; Time 144, 8640 min",0.127 Percent Uptake per Gram of Tis
same,"Distribution, Vitreous","[3]; Time 1, 60 min",0.031 Percent Uptake per Gram of Tis
same,"Distribution, Vitreous","[3]; Time 3, 180 min",0.028 Percent Uptake per Gram of Tis
same,"Distribution, Vitreous","[3]; Time 6, 360 min",0.036 Percent Uptake per Gram of Tis
same,"Distribution, Vitreous","[3]; Time 24, 1440 min",0.031 Percent Uptake per Gram of Tis
same,"Distribution, Vitreous","[3]; Time 72, * 4 animals, 4320 min",0.014 Percent Uptake per Gram of Tis
same,"Distribution, Vitreous","[3]; Time 144, 8640 min",0.018 Percent Uptake per Gram of Tis
lead,Outcome of previous attempts to use lead as agent for the treatment of tumors,[4],apparently failed to produce useful results due to the toxicity of lead in the bloodstream
